# “And” between values parts separate entries of the source, which are not always exact repeats. Identical values can stand only once. Inconclusive results and toxic doses are left out.
# Test system: P388 leukemia ip, CD2F1 mice, survival T/C
# Assay: NCI In Vivo Anticancer Drug Screen. Data for tumor model P388 Leukemia (intraperitoneal) in CD2F1 (CDF1) mice
# Conditions: endpoint: median survival time, higher = longer survival
# In short: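 Mice carrying the transplanted tumor received test compound or vehicle. Survival was recorded in each group, and the value is the treated-group measurement divided by that of the vehicle-treated control group.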
# [1] = dose: 50.0 mg/kg/injection, schedule: Q01DX005 (ip), vehicle: saline with Tween-80
# [2] = dose: 100.0 mg/kg/injection, schedule: Q01DX005 (ip), vehicle: saline with Tween-80
# [3] = dose: 200.0 mg/kg/injection, schedule: Q01DX005 (ip), vehicle: saline with Tween-80
# [4] = dose: 100.0 mg/kg/injection, schedule: Q01DX009 (ip), vehicle: saline with Tween-80
# [5] = dose: 200.0 mg/kg/injection, schedule: Q01DX009 (ip), vehicle: saline with Tween-80
# [6] = dose: 400.0 mg/kg/injection, schedule: Q01DX009 (ip), vehicle: saline with Tween-80
# [7] = dose: 50.0 mg/kg/injection, schedule: Q01DX009 (ip), vehicle: saline
# [8] = dose: 100.0 mg/kg/injection, schedule: Q01DX009 (ip), vehicle: saline
compound,measurement,setting,value
Cc1coc2c1C[C@@]1(C)[C@H](C2)C(=O)CC[C@@H]1C,T/C,"dose: 37.5 mg/kg/injection, schedule: Q01DX009 (ip), vehicle: Klucel (hydroxypropylcellulose) (HPC)",105 % of control
CC1=CC(Cc2ccccc2)N(C)C(C(N)=O)C1 (stereo not drawn),T/C,"dose: 50.0 mg/kg/injection, schedule: Q01DX005 (ip), vehicle: Klucel (hydroxypropylcellulose) (HPC)",102 % of control
same,T/C,"dose: 100.0 mg/kg/injection, schedule: Q01DX005 (ip), vehicle: Klucel (hydroxypropylcellulose) (HPC)",101 % of control
COc1ccc(C(OC)c2cc(C(C)(C)C)c(O)c(C(C)(C)C)c2)cc1 (stereo not drawn),T/C,[1],102 % of control
same,T/C,[2],109 % of control
same,T/C,[3],112 % of control
O=C(O)c1cc(F)cc(C(=O)O)c1,T/C,"dose: 50.0 mg/kg/injection, schedule: Q04DX003 (ip), vehicle: suspension in saline",109 % of control
same,T/C,"dose: 100.0 mg/kg/injection, schedule: Q04DX003 (ip), vehicle: suspension in saline",104 % of control
same,T/C,"dose: 200.0 mg/kg/injection, schedule: Q04DX003 (ip), vehicle: suspension in saline",110 % of control
O=[N+]([O-])c1ccc2[nH]c3cnccc3c2c1,T/C,"dose: 12.5 mg/kg/injection, schedule: Q01DX009 (ip), vehicle: other",106 % of control
same,T/C,"dose: 25.0 mg/kg/injection, schedule: Q01DX009 (ip), vehicle: other",105 % of control
same,T/C,"dose: 50.0 mg/kg/injection, schedule: Q01DX009 (ip), vehicle: other",108 % of control
same,T/C,"dose: 100.0 mg/kg/injection, schedule: Q01DX009 (ip), vehicle: other",107 % of control
CC/C(=N/OC)C(=O)OC,T/C,[1],93 % of control
same,T/C,[2],99 % of control
same,T/C,[3],100 % of control
C[C@@H]1O[C@H]2O[C@@H]3[C@@H](C)O[C@@H](c4ccc5c(c4O)C(=O)c4ccc(C[C@@](C)(O)CC(=O)O)c(O)c4C5=O)C[C@H]3O[C@H]2CC1=O,T/C,"dose: 23.5 mg/kg/injection, schedule: Q01DX005 (ip), vehicle: Klucel (hydroxypropylcellulose) (HPC)",105 % of control
same,T/C,"dose: 47.0 mg/kg/injection, schedule: Q01DX005 (ip), vehicle: Klucel (hydroxypropylcellulose) (HPC)",105 % of control
same,T/C,"dose: 94.0 mg/kg/injection, schedule: Q01DX005 (ip), vehicle: Klucel (hydroxypropylcellulose) (HPC)",97 % of control
COc1ccc(Cc2cc(O)c(O)cc2C)cc1,T/C,"dose: 2.5 mg/kg/injection, schedule: Q01DX009 (ip), vehicle: saline with Tween-80",108 % of control
same,T/C,"dose: 5.0 mg/kg/injection, schedule: Q01DX009 (ip), vehicle: saline with Tween-80",105 % of control
same,T/C,"dose: 10.0 mg/kg/injection, schedule: Q01DX009 (ip), vehicle: saline with Tween-80",108 % of control
Nc1ccc2oc3cccnc3c2c1,T/C,"dose: 100.0 mg/kg/injection, schedule: Q04DX003 (ip), vehicle: saline",104 % of control
same,T/C,"dose: 200.0 mg/kg/injection, schedule: Q04DX003 (ip), vehicle: saline",111 % of control
same,T/C,"dose: 400.0 mg/kg/injection, schedule: Q04DX003 (ip), vehicle: saline",102 % of control
CC/C(=C(/O)c1ccccc1)c1nc2ccc(Cl)cc2[nH]c1=O,T/C,"dose: 60.0 mg/kg/injection, schedule: Q01DX005 (ip), vehicle: Klucel + Tween-80",100 % of control
same,T/C,"dose: 120.0 mg/kg/injection, schedule: Q01DX005 (ip), vehicle: Klucel + Tween-80",93 % of control
same,T/C,"dose: 240.0 mg/kg/injection, schedule: Q01DX005 (ip), vehicle: Klucel + Tween-80",98 % of control
S=c1n(-c2ccc(Cl)cc2)c2nc3ccccc3nc(/c2=N\Nc2ccccc2)n1-c1ccccn1,T/C,[1],91 % of control
same,T/C,[2],100 % of control
CN(C)C(P1(=O)OC(C)(C)C(C)(C)O1)P1(=O)OC(C)(C)C(C)(C)O1,T/C,"dose: 50.0 mg/kg/injection, schedule: Q01DX005 (ip), vehicle: saline",104 % of control
same,T/C,"dose: 100.0 mg/kg/injection, schedule: Q01DX005 (ip), vehicle: saline",99 % of control
same,T/C,"dose: 200.0 mg/kg/injection, schedule: Q01DX005 (ip), vehicle: saline",98 % of control
O=[N+]([O-])c1ccccc1SSc1ccccc1[N+](=O)[O-],T/C,[4],95 % of control
same,T/C,[5],104 % of control
same,T/C,[6],100 % of control
Cn1nnnc1CCN(CCN(CCc1nnnn1C)/N=C\c1ccccc1)/N=C\c1ccccc1,T/C,"dose: 50.0 mg/kg/injection, schedule: Q04DX003 (ip), vehicle: Klucel (hydroxypropylcellulose) (HPC)",95 % of control
same,T/C,"dose: 100.0 mg/kg/injection, schedule: Q04DX003 (ip), vehicle: Klucel (hydroxypropylcellulose) (HPC)",95 % of control
same,T/C,"dose: 200.0 mg/kg/injection, schedule: Q04DX003 (ip), vehicle: Klucel (hydroxypropylcellulose) (HPC)",96 % of control
Cn1c(=S)[nH]c2scc(-c3ccccc3)c2c1=O,T/C,"dose: 60.0 mg/kg/injection, schedule: Q01DX005 (ip), vehicle: saline with Tween-80",87 % of control
same,T/C,"dose: 240.0 mg/kg/injection, schedule: Q01DX005 (ip), vehicle: saline with Tween-80",96 % of control
COc1cc(C(CC(=O)O)CC(=O)O)cc(OC)c1OC,T/C,[1],93 % of control
same,T/C,[2],95 % of control
same,T/C,[3],95 % of control
CCN(CC)CCCNc1nccc2c(C)c3[nH]c4ccncc4c3cc12,T/C,"dose: 0.5 mg/kg/injection, schedule: Q04DX003 (ip), vehicle: other",162 % of control
same,T/C,"dose: 0.5 mg/kg/injection, schedule: Q04DX003 (iv), vehicle: other",110 % of control
same,T/C,"dose: 0.58 mg/kg/injection, schedule: Q04DX003 (ip), vehicle: other",155 % of control
same,T/C,"dose: 0.97 mg/kg/injection, schedule: Q04DX003 (ip), vehicle: other",156 % of control
same,T/C,"dose: 1.0 mg/kg/injection, schedule: Q04DX003 (iv), vehicle: other",110 % of control
same,T/C,"dose: 1.62 mg/kg/injection, schedule: Q04DX003 (ip), vehicle: other",182 % of control
same,T/C,"dose: 2.0 mg/kg/injection, schedule: Q04DX003 (iv), vehicle: other",112 % of control
same,T/C,"dose: 2.7 mg/kg/injection, schedule: Q04DX003 (ip), vehicle: other",189 % of control
same,T/C,"dose: 3.24 mg/kg/injection, schedule: Q04DX002 (ip), vehicle: other",170 % of control and 175 % of control
same,T/C,"dose: 3.89 mg/kg/injection, schedule: Q04DX002 (ip), vehicle: other",179 % of control
same,T/C,"dose: 4.0 mg/kg/injection, schedule: Q04DX003 (iv), vehicle: other",122 % of control
same,T/C,"dose: 4.5 mg/kg/injection, schedule: Q04DX003 (ip), vehicle: other",196 % of control
same,T/C,"dose: 5.4 mg/kg/injection, schedule: Q04DX002 (ip), vehicle: other",168 % of control and 185 % of control
same,T/C,"dose: 6.48 mg/kg/injection, schedule: Q04DX002 (ip), vehicle: other",213 % of control
same,T/C,"dose: 7.5 mg/kg/injection, schedule: Q04DX003 (ip), vehicle: other",182 % of control
same,T/C,"dose: 9.0 mg/kg/injection, schedule: Q04DX002 (ip), vehicle: other",200 % of control and 207 % of control
same,T/C,"dose: 10.8 mg/kg/injection, schedule: Q04DX002 (ip), vehicle: other",194 % of control
same,T/C,"dose: 15.0 mg/kg/injection, schedule: Q04DX002 (ip), vehicle: other",200 % of control and 217 % of control
same,T/C,"dose: 18.0 mg/kg/injection, schedule: Q04DX002 (ip), vehicle: other",215 % of control
COCC1OC(OC2OCC3OC4(OCC(O)(C(C)OC)C5OCOC54)OC3C2OC)C(OC)C(O)C1OC1OC(C)C(OC)C(OC2OC(C)C3OC4(CC(O)C(OC5CC(OC6CC(C)([N+](=O)[O-])C(OC)C(C)O6)C(OC(=O)c6c(C)c(Cl)c(O)c(Cl)c6OC)C(C)O5)C(C)O4)OC3(C)C2O)C1O (stereo not drawn),T/C,"dose: 12.5 mg/kg/injection, schedule: Q01DX009 (ip), vehicle: saline",118 % of control
same,T/C,"dose: 25.0 mg/kg/injection, schedule: Q01DX009 (ip), vehicle: saline",103 % of control
same,T/C,[7],98 % of control
same,T/C,[8],105 % of control
CCC(O)(CC)/C(C)=N/O,T/C,"dose: 50.0 mg/kg/injection, schedule: Q01DX009 (ip), vehicle: saline with Tween-80",91 % of control
same,T/C,[4],89 % of control
same,T/C,[5],94 % of control
CCOC(=O)C(CNc1ccc(O)cc1)NC(=O)c1ccccc1 (stereo not drawn),T/C,[7],101 % of control
same,T/C,[4],94 % of control
same,T/C,[8],103 % of control
same,T/C,[5],94 % of control
same,T/C,"dose: 200.0 mg/kg/injection, schedule: Q01DX009 (ip), vehicle: saline",102 % of control
same,T/C,[6],94 % of control
same,T/C,"dose: 400.0 mg/kg/injection, schedule: Q01DX009 (ip), vehicle: saline",101 % of control
CC(=O)O.CC(=O)[O-].CC(=O)[O-].[Co+3].[NH-]CC[NH-].[NH-]CC[NH-],T/C,[8],100 % of control

# From PubChem BioAssay AID330 (DTP/NCI, 2004)
